Source: patent US8535942B2, “Glypican-3 (GPC3)-derived tumor rejection antigenic peptides useful for HLA-A2-positive patients and pharmaceutical comprising the same” (Oncotherapy Science, Inc., priority 2005, dated 2013)
Entries after “also recorded” stand apart in the source; their conditions may differ. No end group written: not given here.

Each sequence was assayed on SK-Hep-1/GPC3 cells (assay: Cytotoxicity test of peptide-induced killer T cells (calcein AM, Terascan VP)). Conditions: killer T cells induced with peptide-loaded dendritic cells; targets SK-Hep-1/GPC3 vs SK-Hep-1; E/T ratio 20:1.
Type: cell-based, human
Description: Informed consent was obtained from HLA-A2-positive hepatocellular carcinoma patients, who were in therapy at Gastroenterological Surgery, Kumamoto University School of Medicine, and at Hospital East, the National Cancer Center. Thereafter, 30 ml of blood sample was obtained from individual patients, and peripheral blood mononuclear cells were then isolated using Ficoll-Conray density-gradient centrifugation method according to the previously reported method (Nakatsura, T et al., Eur. J. Immunol. 32, 826-836 (2002)).
From the isolated peripheral blood mononuclear cells, killer T cells were induced by the previously reported method (Monji, M et al., Clin Cancer Res 10, 6047-6057, 2004). First, CD8-positive cells and CD14-positive cells were separated from the peripheral blood mononuclear cells using MACS. The CD14-positive cells were cultured in the presence of GM-CSF (100 ng/ml) and IL-4 (20 ng/ml) for 5 days, so that differentiation of dendritic cells was induced. Thereafter, TNF-α (20 ng/ml) was added thereto for maturation. On the 7th day, each GPC3 peptide (10 μM) was added thereto, and co-culture with CD8-positive cells was then carried out. This antigen stimulation with autologous CD14-positive cell-derived dendritic cells was repeated 3 or 4 times every week, so that peptide-specific killer T cells were induced. During the induction, half a medium was exchanged with a fresh one every two days, and IL-2 was added thereto in a concentration of 10 U/ml.
The cytotoxic activity of killer T cells was evaluated by a cytotoxic test using Terascan VP. First, target cells were fluorescently labeled with a calcein AM staining solution at 37° C. for 30 minutes. Such cells were co-cultured with killer T cells on a Coster 96-well half area plate, and fluorescently labeled cells were then detected over time, thereby measuring the degree of cytotoxicity. The analysis was carried out using cytotoxicity test computing software CalCT-961 of MINERVA TECH, which was used in a fluorescence method. An experiment was carried out at an E/T ratio of 20:1. […]
For FVGEFFTDV [GPC3 144-152, FVGEFFTDV], the GPC3-specific cytotoxic activity was “confirmed; also recorded: exhibited strong cytotoxic activity”. In the case of YILGSDINV [GPC3 155-163, YILGSDINV], the GPC3-specific cytotoxic activity is reported as “confirmed; also recorded: exhibited strong cytotoxic activity”. RLQPGLKWV [GPC3 44-52, RLQPGLKWV] was tested, and the GPC3-specific cytotoxic activity was “confirmed; also recorded: exhibited strong cytotoxic activity”.
